Test results from patent USRE48461E1, “Modulation of androgen receptor expression” (Ionis Pharmaceuticals, Inc., priority 2012, dated 2021).
Oligonucleotides are written 5' to 3', each unit as a sugar letter and its base; * is a phosphorothioate linkage, no mark a phosphodiester; rarer units and linkages stand in square brackets, end groups in braces. Plain capitals give the bases only. k = constrained ethyl (cEt); [5mC] = 5-methylcytosine; d = 2'-deoxy (DNA)

Assays:
AR mRNA [1] = test: Antisense inhibition of human AR in HuVEC cells, single concentration (electroporation, qRT-PCR RTS3559); assay type: cell-based; details: 500 nM ASO, ~24 h
Procedure, shortened: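 HuVEC cells electroporated with antisense oligonucleotides at a single concentration. AR mRNA quantified by qRT-PCR using human primer-probe set RTS3559 and normalised to total RNA content by RIBOGREEN.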

AR mRNA [2] = test: Dose-dependent antisense inhibition of human AR in HuVEC cells (electroporation, qRT-PCR RTS3559, IC50); assay type: cell-based; details: HuVEC, electroporation, approximately 16 hours
Procedure, shortened: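 HuVEC cells dosed with antisense oligonucleotides by electroporation and treated approximately 16 hours. AR mRNA quantified by real-time qPCR with primer probe set RTS3559 and normalised to total RNA by RIBOGREEN; IC50 from dose-response.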

| Substance | % inhibition (AR mRNA [1]; Table 17) | percent inhibition of AR, 46.9 nM (AR mRNA [2]; Table 29) | percent inhibition of AR, 187.5 nM (AR mRNA [2]; Table 29) | percent inhibition of AR, 750.0 nM (AR mRNA [2]; Table 29) | percent inhibition of AR, 3000.0 nM (AR mRNA [2]; Table 29) | IC50 (AR mRNA [2]; Table 29) | percent inhibition of AR, 46.9 nM (AR mRNA [2]; Table 30) | percent inhibition of AR, 187.5 nM (AR mRNA [2]; Table 30) | percent inhibition of AR, 750.0 nM (AR mRNA [2]; Table 30) | percent inhibition of AR, 3000.0 nM (AR mRNA [2]; Table 30) | IC50 (AR mRNA [2]; Table 30) | % inhibition (AR mRNA [1]; Table 18) | percent inhibition of AR, 46.9 nM (AR mRNA [2]; Table 31) | percent inhibition of AR, 187.5 nM (AR mRNA [2]; Table 31) | percent inhibition of AR, 750.0 nM (AR mRNA [2]; Table 31) | percent inhibition of AR, 3000.0 nM (AR mRNA [2]; Table 31) | IC50 (AR mRNA [2]; Table 31) |
| --- | --- | --- | --- | --- | --- | --- | --- | --- | --- | --- | --- | --- | --- | --- | --- | --- | --- |
| 583608 (antisense kG*k[5mC]*kT*dA*dG*d[5mC]*dT*d[5mC]*dG*d[5mC]*d[5mC]*d[5mC]*dG*k[5mC]*kT*k[5mC]) [compound 583608] | 51% | 12% | 46% | 67% | 76% | 350 nM | – | – | – | – | – | – | – | – | – | – | – |
| 583609 (antisense k[5mC]*kA*kG*d[5mC]*dT*dA*dG*d[5mC]*dT*d[5mC]*dG*d[5mC]*d[5mC]*k[5mC]*kG*k[5mC]) [compound 583609] | 51% | 16% | 48% | 63% | 73% | 360 nM | – | – | – | – | – | – | – | – | – | – | – |
| 583613 (antisense kG*k[5mC]*kA*dA*dT*dG*dT*dG*d[5mC]*dA*dG*d[5mC]*dT*kA*kG*k[5mC]) [compound 583613] | 51% | 24% | 60% | 70% | 75% | 190 nM | – | – | – | – | – | – | – | – | – | – | – |
| 583635 (antisense k[5mC]*kT*kG*dG*d[5mC]*dT*d[5mC]*d[5mC]*dG*d[5mC]*dA*d[5mC]*dT*k[5mC]*kG*kG) [compound 583635] | 50% | 35% | 56% | 69% | 78% | 130 nM | – | – | – | – | – | – | – | – | – | – | – |
| 583637 (antisense kA*kT*k[5mC]*dT*d[5mC]*dT*dG*dG*d[5mC]*dT*d[5mC]*d[5mC]*dG*k[5mC]*kA*k[5mC]) [compound 583637] | 43% | – | – | – | – | – | 22% | 32% | 59% | 75% | 450 nM | – | – | – | – | – | – |
| 583638 (antisense kT*kG*kA*dT*d[5mC]*dT*d[5mC]*dT*dG*dG*d[5mC]*dT*d[5mC]*k[5mC]*kG*k[5mC]) [compound 583638] | 51% | 33% | 64% | 79% | 85% | 110 nM | – | – | – | – | – | – | – | – | – | – | – |
| 583642 (antisense kA*kG*kT*dG*dT*d[5mC]*d[5mC]*dA*d[5mC]*dT*dG*dA*dA*kG*kT*kA) [compound 583642] | 42% | – | – | – | – | – | 18% | 35% | 67% | 74% | 460 nM | – | – | – | – | – | – |
| 583649 (antisense kA*kG*kG*d[5mC]*dT*d[5mC]*dA*d[5mC]*dA*dG*dT*d[5mC]*dT*kG*kT*k[5mC]) [compound 583649] | 46% | 28% | 50% | 68% | 84% | 200 nM | – | – | – | – | – | – | – | – | – | – | – |
| 583660 (antisense kG*kA*k[5mC]*dA*d[5mC]*dA*d[5mC]*dG*dG*dT*dG*dG*dA*k[5mC]*kA*kA) [compound 583660] | 44% | 21% | 39% | 61% | 72% | 420 nM | – | – | – | – | – | – | – | – | – | – | – |
| 583662 (antisense kA*kG*kA*dA*dG*dA*d[5mC]*dA*d[5mC]*dA*d[5mC]*dG*dG*kT*kG*kG) [compound 583662] | 51% | 27% | 59% | 75% | 75% | 150 nM | – | – | – | – | – | – | – | – | – | – | – |
| 583667 (antisense k[5mC]*kG*k[5mC]*dT*d[5mC]*dT*dG*dA*d[5mC]*dA*dG*d[5mC]*d[5mC]*kT*k[5mC]*kA) [compound 583667] | 42% | – | – | – | – | – | 35% | 55% | 73% | 82% | 140 nM | – | – | – | – | – | – |
| 583687 (antisense kG*kG*kT*dA*dG*dT*d[5mC]*dG*d[5mC]*dT*dG*d[5mC]*dA*kG*k[5mC]*kT) [compound 583687] | – | – | – | – | – | – | 34% | 67% | 83% | 81% | 80 nM | 41% | – | – | – | – | – |
| 583688 (antisense kG*k[5mC]*kG*dG*dT*dA*dG*dT*d[5mC]*dG*d[5mC]*dT*dG*k[5mC]*kA*kG) [compound 583688] | – | – | – | – | – | – | 3% | 26% | 50% | 60% | 1050 nM | 38% | – | – | – | – | – |
| 583689 (antisense kA*kT*kG*d[5mC]*dG*dG*dT*dA*dG*dT*d[5mC]*dG*d[5mC]*kT*kG*k[5mC]) [compound 583689] | – | – | – | – | – | – | 20% | 34% | 62% | 74% | 440 nM | 39% | – | – | – | – | – |
| 583692 (antisense kG*kT*kG*dA*dT*dG*dA*dT*dG*d[5mC]*dG*dG*dT*kA*kG*kT) [compound 583692] | – | – | – | – | – | – | 8% | 47% | 61% | 71% | 440 nM | 41% | – | – | – | – | – |
| 583693 (antisense k[5mC]*kT*kG*dT*dG*dA*dT*dG*dA*dT*dG*d[5mC]*dG*kG*kT*kA) [compound 583693] | – | – | – | – | – | – | – | – | – | – | – | 36% | 12% | 39% | 64% | 80% | 380 nM |
| 583700 (antisense kG*kA*kA*dG*dA*dG*dT*dT*d[5mC]*dA*dA*d[5mC]*dA*kG*kG*k[5mC]) [compound 583700] | – | – | – | – | – | – | – | – | – | – | – | 36% | 14% | 34% | 57% | 71% | 550 nM |
| 583709 (antisense kG*k[5mC]*kT*dT*dG*dG*d[5mC]*dT*dG*dA*dA*dT*d[5mC]*kT*kT*k[5mC]) [compound 583709] | – | – | – | – | – | – | 8% | 50% | 70% | 84% | 290 nM | 39% | – | – | – | – | – |
| 583712 (antisense k[5mC]*k[5mC]*kT*dT*dG*dA*dG*d[5mC]*dT*dT*dG*dG*d[5mC]*kT*kG*kA) [compound 583712] | – | – | – | – | – | – | 15% | 47% | 72% | 78% | 290 nM | 37% | – | – | – | – | – |
| 583713 (antisense kA*kT*k[5mC]*d[5mC]*dT*dT*dG*dA*dG*d[5mC]*dT*dT*dG*kG*k[5mC]*kT) [compound 583713] | – | – | – | – | – | – | – | – | – | – | – | 36% | 29% | 51% | 67% | 74% | 220 nM |
